According to patent US6534282B2, “Detection of hypertension using immunoreactive metabolic products” (priority 1999, dated 2003):

Experiments:
[1] = test system: anti-14,15-DHET IgG; assay: Specificity of the 14,15-DHET competitive ELISA (eicosanoid panel); format: binding, goat; details: for cross-reaction with anti-14,15-DHET (in words) / cross-reaction with anti-14,15-DHET: 14,15-DHET ELISA; for cross-reactivity relative to 14,15-DHET: competition with 14,15-DHET for anti-14,15-DHET IgG in ELISA
Description: Synthetic 14, 15- or 8,9-DHETs were coupled to KLH using dicyclohexylcarbodiimide as previously described (25). The conjugate was used to immunize a goat and antibody titers were determined by ELISA using DHET-conjugated bovine serum albumin (BSA).
High-binding microplates were coated with protein G-purified IgG suspended in 1M carbonate, pH 9.0, (1 μg/well; 200 μl/well final volume) and then covered with paraflim. After overnight incubation at room temperature, the wells were gently washed five times with tris buffered saline (TBS), pH 7.5, containing 0.1% tween. Non-specific sites were blocked by the addition of 0.2 ml of 5% (w/v) nonfat dry milk in TBS. After two hours of incubation at room temperature, they were washed three times with TBS-tween. One μg/well of purified IgG was sufficient for quantitation of 0.5 to 100 pg/well of 14,15- or 8,9-DHETs. Samples and standards (150 μL) were added and the plates incubated for 20 minutes, after which 15 ng of the DHET-HRP conjugate was added in 50 μL of TBS. Following incubation for one hour to permit competitive binding to bound antibody, unbound material was removed by thorough washing of the wells with TBS-tween, and 150 μL of a colorimetric substrate for HRP [3,3′,5,5′ tetramethylbenzidine (TMB) and hydrogen peroxide] (Sigma Co.) was added. The plate is then incubated for 20 minutes, the reaction stopped by addition of 75 μL of 1N H2SO4, and the absorbance at 450 nm was determined using a microtiter plate reader. Under these assay conditions, the amount of color in a well is inversely proportional to the initial concentration of the sample or a standard ligand.
The specificity of the 14,15-DHET ELISA was investigated using authentic DHET and a panel of eicosanoids (Table 5) which, based on their structure, might be anticipated to compete with 14,15-DHET for binding to antibodies against 14,15-DHET. […] There was a slight cross-reaction with 8,9- and 11,12-DHET (3.3% for both).
A listing of the panel of eicosanoids used to analyze the specificity of the 14,15-DHET ELISA. These eicosanoids were selected based on the similarity of their structure to 14,15-DHET, as being anticipated to potentially compete with 14,15-DHET for binding to anti-14,15-DHET and thus interfere with such assays.

[2] = test system: AA epoxygenase; assay: AA oxygenase activity assay of hepatic microsomes using 14C AA, from treated rats; format: in vivo, rat; details: hepatic microsomes of rats treated i.p. 10 mg/kg/d for 4 days; incubation 10 min
Description: (§1) Male and female Sprague-Dawley (SD) rats (160-200 g) were purchased from Charles River Laboratories (Wilmington, Mass.) and housed in a controlled environment and fed standard laboratory chow for at least 3 days before use.
Microsomes were prepared from rat livers and kidneys as described previously (27,28). Microsomes were stored at −80° C. in 50 mM Tris acetate buffer, pH 7.4, containing 1 mM EDTA and 20% glycerol until use.
After incubation of the microsomes (1 mg protein/ml, final concentration), 0.05 M Tris-HCl buffer, pH 7.5, containing 0.15 m KCl, 10 mM MgC12, 8 mM sodium isocitrate and 0.5 IU of isocitrate dehydrogenase and, incubated with ^14C AA (1 μCi/μmol, 100 μM, final concentration) in the presence of 1 mM NADPH at 30° C. The reaction products were taken at five and ten minutes and extracted into ethyl ether containing 0.05% acetic acid. The AA oxygenase metabolites were separated by HPLC and quantitated by a radiomatic Flo-One β-detector.
The reaction products were taken at 5 and 10 min. and extracted into ethyl ether containing 0.05% acetic acid). The AA oxygenase metabolites were separated by HPLC and quantitated by a radiomatic Flo-One B-detector.

[3] = test system: CYP2C23; assay: Western blot of hepatic microsomes for CYP2C23; format: in vivo, rat; details: after 4 days of treatment, 10 mg/kg/day i.p., FIG. 4
Description: as §1
SDS-PAGE was carried out on 10% acrylamide gel. The separated proteins were electroblotted onto cellulose membrane and Western blot analyses were carried out using alkaline phosphatase system as previously described (29). Visualization of P450 bands was accomplished by incubation with a mixture of 5-bromo4-chloro-3-indolylphosphatate p-toluidine and nitrobluetetrazolium.

[4] = test system: AA epoxygenase; details: rats; cited from earlier work

SMILES	cross-reactivity relative to 14,15-DHET [1]	cross-reaction with anti-14,15-DHET (in words) [1]	also measured
CCCCC[C@H](O)/C=C/C=C\C/C=C\C=C\[C@@H](O)CCCC(=O)O [5(s)15(S)DiHETE]	0.20%	did not cross-react	
CCCCC/C=C\C/C=C\C/C=C\CC1OC1CCCC(=O)O (stereo not shown) [5,6-EET]	0.02%	did not cross-react	
CCCCC[C@H](O)/C=C/[C@@H]1[C@@H](CC(=O)CCCCC(=O)O)[C@@H](O)C[C@H]1O [6-keto-PGF1α]	<0.01%	did not cross-react	
CCCCCC1OC1C/C=C\C/C=C\C/C=C\CCCC(=O)O (stereo not shown) [14,15-EET]	1.50%	did not cross-react	
C[C@@H]1C[C@H]2[C@@H]3CCC4=CC(=O)C=C[C@]4(C)[C@@]3(F)[C@@H](O)C[C@]2(C)[C@@]1(O)C(=O)CO [DEX, dexamethasone]			11,12-EET formed [2]: 73 ng EET formed/mg protein; 14,15-EET formed [2]: 97 ng EET formed/mg protein; hepatic CYP2C23 protein level [3]: decreased dramatically
CCCCC[C@H](O)/C=C/[C@H]1[C@H](O)CC(=O)[C@@H]1C/C=C\CCCC(=O)O [PGE2]	<0.01%	did not cross-react	
CCCCC[C@H](O)/C=C/[C@@H]1[C@@H](C/C=C\CCCC(=O)O)[C@@H](O)C[C@H]1O [PGF2α]	<0.01%	did not cross-react	
CCCCC[C@H](O)/C=C/[C@H]1OC(O)C[C@H](O)[C@@H]1C/C=C\CCCC(=O)O (stereo partly shown) [Thromboxane B2]	0.02%	did not cross-react	
Clc1ccccc1C(c1ccccc1)(c1ccccc1)n1ccnc1 [clotrimazole]			blood pressure effect [4]: induced salt-sensitive and clotrimazoledependent hypertension; urinary excretion of Na+, EETs and DHETs [4]: decreased

More lines, main results first:

cross-reactivity relative to 14,15-DHET [1]	SMILES	cross-reaction with anti-14,15-DHET (in words) [1]	also measured
0.02%	CCCCC/C=C\C/C=C\C/C=C\CC(O)C(O)CCCC(=O)O (stereo not shown) [5,6-DHET]	did not cross-react	
3.30%	CCCCCC=CCC=CCC(O)C(O)CC=CCCCC(=O)O (stereo not shown) [8,9-DHET, 8,9-dihydroxyeicosatrienoic acid]		cross-reaction with anti-14,15-DHET [1]: 3.3%
0.40%	CCCCC/C=C\C/C=C\CC1OC1C/C=C\CCCC(=O)O (stereo not shown) [8,9-EET]	did not cross-react	
3.30%	CCCCC/C=C\CC(O)C(O)C/C=C\C/C=C\CCCC(=O)O (stereo not shown) [11,12-DHET]		cross-reaction with anti-14,15-DHET [1]: 3.3%
0.05%	CCCCC/C=C\C[C@H]1O[C@H]1C/C=C\C/C=C\CCCC(=O)O [11,12-EET]	did not cross-react	
100.00%	CCCCCC(O)C(O)CC=CCC=CCC=CCCCC(=O)O (stereo not shown) [14,15-DHET, 14,15-dihydroxyeicosatrienoic acid]		
1.00%	CCCCC[C@H](O)/C=C/C=C\C/C=C\C/C=C\CCCC(=O)O [15(S)HETE]	did not cross-react	
0.05%	CCCCC/C=C\C/C=C\C/C=C\C/C=C\CCCC(=O)O [arachidonic acid]	did not cross-react	
